Test results published in patent US20240018105A1, “TROPOLONE DERIVATIVES AND TAUTOMERS THEREOF FOR IRON REGULATION IN ANIMALS” (Kinesid Therapeutics, Inc., priority 2019, published 2024).

Assays:
[1] = Human liver microsomal stability assay; format: in vitro ADME
Source text: (§1) Compounds of the present disclosure were further evaluated in standard in vitro and in vivo Absorption, Distribution, Metabolism, Excretion (ADME) and Drug Metabolism and Pharmacokinetics (DMPK) assays to assess drug profiles important for further drug development.
(§2) Such assessments included human and mouse liver microsomal stability assays as well as 6-hour mouse PK studies.

[2] = Ligand facilitated Fe(III) efflux from liposomes; settings: 10 uM ligand concentration
Outline: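 POPC:cholesterol liposomes loaded with Fe(III)-citrate (pH 7.0), used at 1 mM phosphorus with 1 mM ferrozine outside. Ligand at 40–1.25 μM final, in triplicate; absorbance at 562 nm read every 60 s for 120 min. Efflux rate k from single-phase association fit, averaged over triplicates.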

[3] = Mouse liver microsomal stability assay; format: in vitro ADME
Source text: as §1, §2

Mouse 6-hour PK study = settings: in vivo
Source text: as §1, §2

[4] = tested on: DMT1-deficient Caco-2 cells; assay: shDMT1-Caco2 55Fe transport assay; format: cell-based
Source text: Assay 2: shDMT1-Caco2 ^55Fe Transport Assay to Assess Ligand Ability in Transporting Fe (III)
Cells: DMT1-deficient Caco-2 cells (alias: “shDMT1,” or “4A” cells) were from Grillo et al. Science, 2017, and were cryopreserved in liquid nitrogen prior to use.
Reagents and supplies: ^55FeCl3 was obtained from PerkinElmer (Boston, MA). Iron(III) chloride (FeCl3) hexahydrate was obtained from Sigma. Dulbecco's Modified Eagle Medium (DMEM), fetal bovine serum (FBS), L-glutamine, MEM nonessential amino acids, penicillin-streptomycin, G418, formic acid, methanol, high-purity water, ammonium formate, dimethyl sulfoxide (DMSO) were purchased from Fisher Scientific. Propranolol, atenolol and carbutamide were obtained from Sigma-Aldrich Chemical Company (St Louis, MO). Scintillation cocktail was obtained from Research Product International Co. (Mount Prospect, IL). Stericup filter system (PES membrane, 0.22 um pore size) was purchased from Fisher Scientific. Coming item #3378 24-well transwell insert plates. Test articles: known compounds hinokitiol and deferiprone were purchased from Sigma. They are tested side by side with the small molecule ligands disclosed in this application. DMSO stocks (10 mM, which is 1,000× of the 10 μM dose level) of hinokitiol or test articles were prepared. A stock solution of 25 mM deferiprone in DMSO was prepared. The DMSO stock solutions were stored at −20° C. or below when not in use.
The growth medium was prepared according to the following table
Apical media (serum free DMEM, 10 mM MES, pH 6.5) was prepared. Apical master mix media was prepared fresh with the addition of 200 nM ^55Fe before each experiment. For the negative control propranolol and atenolol wells, 200 nM of non-radioactive iron was used.
The basolateral media was serum-free DMEM, 10 mM HEPES, 2% bovine serum albumin (BSA), pH 7.4.
For each experiment, cells were seeded into the 24-well transwell plates (0.5 mL of 50,000 cells/mL) with growth media. The basolateral companion plate was loaded with 1 mL of growth media. After 12-24 hr, both the apical and basolateral chamber were replaced with growth media. The apical media was changed 3× per week for 21-28 days, including a media change exactly 48 hr before the assay date.
On the assay day, the TEER values were measured and the average TEER values was obtained. Individual wells with TEER vaule >35% lower than the average of all wells were excluded. For the qualified wells, the apical layer (twice) and basolaterial (once) chambers were washed with PBS. The basolateral companion plate was then filled with 1 mL of basolateral media. Via addition down the side-wall of the apical well, 300 μL per well of the apical assay master mix, with the indicated dose level of test article, was added. Each dose was tested in triplicate. The plates were incubated (5% CO2 and 90% humidity at 37° C.) for the indicated timepoints. At each indicated timepoint, the basolateral supernatant was gently mixed via pipetting, and 200 μL of the basolateral supernatant was transferred to scintillation vials. To each scintillation counting vial, 5 mL of scintillation cocktail fluid was added. For each scintillation vial, the radioactivity (CPM) was determined with liquid scintillation counter LS6500. The counting time per vial was 5 min.
All raw CPM values are divided by the average value of blank DMSO solution to give a fold of change above the DMSO value. The mean and standard deviation of each compound at each concentration level and at each time point measured was calculated to give the fold change (fc) value.
For rank order compounds, the fc value of a ligand at 4 h time point is further divided by the fold change (fc) value of hinokitiol (a positive control compound) at an equimolar concentration to arrive at the FC (normalized fold of change) value. Data reported in Tables 1 and 2 is 4 hr time point FC=fc-ligand @ 3 uM/fc-hino @ 3 uM, and FC hino=1.

SMILES | half-life ([1]; human, microsomes) [h] | microsomal CLint ([1]; human, microsomes) [µL/min/mg] | half-life ([3]; mouse, microsomes) [h] | microsomal CLint ([3]; mouse, microsomes) [µL/min/mg] | AUC(0-t) (Mouse 6-hour PK study) [ng·h/mL] | Cmax (Mouse 6-hour PK study) [ng/mL] | half-life (Mouse 6-hour PK study) [h] | Caco2 shDMT1 transport FC @ 3 μM, 4h ([4]; Caco-2) | Liposome Fe transport kefflux at 10 10 μM ([2]; Table 1) | mouse 6-hour PK properties compared to hinokitiol (Mouse 6-hour PK study) | clearence half-life (t1/2) and/or intrinsic clearence (CLint) compared to hinokitiol ([1]; microsomes) | microsomal CLint ([1]; human liver microsomes, Table 4, read-out: Human CLint) [µL/min/mg] | half-life ([1]; human liver microsomes, Table 4, read-out: Human t1/2) [h] | Liposome Fe transport Kefflux at 10 μM ([2]; Table 1) | Liposome Fe transport Kefflux at 10 μM ([2]; Table 2) | microsomal CLint ([3]; mouse liver microsomes, Table 4, read-out: Mouse CLint) [µL/min/mg] | half-life ([3]; mouse liver microsomes, Table 4, read-out: Mouse t1/2) [h] | Caco2 shDMT1 transport FC @ 3 μM, 4h ([4]; 3 μM, 4 h, fold change normalized to hinokitiol (FC hino=1), Table 1) | Caco2 shDMT1 transport FC @ 3 μM, 4h ([4]; 3 μM, 4 h, fold change normalized to hinokitiol (FC hino=1), Table 2)
O=c1cccc(-c2cnc(C3CC3)nc2)cc1O [Ex.37] | > 2 | < 11.6 | > 2 | < 11.6 | 1500 to 5000 | 500 to 1500 | 1.25 to 4.99 | 0.01-0.5 | 5-7.5 | one or more improved mouse 6-hour PK properties compared to hinokitiol | – | – | – | – | – | – | – | – | –
Cc1ccc(-c2cncc(F)c2)cc(O)c1=O [Ex.16, 4-(5-fluoropyridin-3-yl)-2-hydroxy-7-methylcyclohepta-2,4,6-trien-1-one] | > 2 | < 11.6 | 1.38 | 16.7 | > 20000 | 5000 to 20000 | 1.25 to 4.99 | 0.5-1 | 10-25 | one or more improved mouse 6-hour PK properties compared to hinokitiol | – | – | – | – | – | – | – | – | –
Cc1c(F)cncc1-c1ccc([O-])c(=O)cc1.[Na+] [Ex.23, sodium 4-(5-fluoro-4-methylpyridin-3-yl)-7-oxocyclohepta-1,3,5-trien-1-olate] | > 2 | < 11.6 | > 2 | < 11.6 | > 20000 | 5000 to 20000 | 1.25 to 4.99 | 0.01-0.5 | 10-25 | one or more improved mouse 6-hour PK properties compared to hinokitiol | – | – | – | – | – | – | – | – | –
O=c1cccc(-c2ccc(F)cn2)cc1O [Ex.3, 4-(5-fluoropyridin-2-yl)-2-hydroxycyclohepta-2,4,6-trien-1-one] | > 2 | < 11.6 | > 2 | < 11.6 | 5000 to 20000 | 1500 to 5000 | 1.25 to 4.99 | 0.01-0.5 | 5-7.5 | one or more improved mouse 6-hour PK properties compared to hinokitiol | – | – | – | – | – | – | – | – | –
CC(C)c1cccc(=O)c(O)c1 [hinokitiol, reference compound] | – | – | – | – | – | – | – | – | – | – | – | 150 | 0.153 | 7.77 | 7.77 | 43.4 | 0.533 | 1 | 1.00
O=c1cccc(-c2cncc(F)c2)cc1O [Ex.1, 4-(5-fluoropyridin-3-yl)-2-hydroxycyclohepta-2,4,6-trien-1-one] | > 2 | < 11.6 | > 2 | < 11.6 | 5000 to 20000 | 5000 to 20000 | < 1.25 | 0.01-0.5 | 5-7.5 | one or more improved mouse 6-hour PK properties compared to hinokitiol | – | – | – | – | – | – | – | – | –
Cc1ncc(-c2cccc(=O)c(O)c2)cc1F [Ex.57, 4-(5-fluoro-6-methylpyridin-3-yl)-2-hydroxycyclohepta-2,4,6-trien-1-one] | > 2 | < 11.6 | > 2 | < 11.6 | 1500 to 5000 | 500 to 1500 | 1.25 to 4.99 | 0.01-0.5 | 7.5-10 | one or more improved mouse 6-hour PK properties compared to hinokitiol | – | – | – | – | – | – | – | – | –

Second part, led by results:

half-life ([1]; human, microsomes) [h] | microsomal CLint ([1]; human, microsomes) [µL/min/mg] | half-life ([3]; mouse, microsomes) [h] | microsomal CLint ([3]; mouse, microsomes) [µL/min/mg] | AUC(0-t) (Mouse 6-hour PK study) [ng·h/mL] | Cmax (Mouse 6-hour PK study) [ng/mL] | half-life (Mouse 6-hour PK study) [h] | Caco2 shDMT1 transport FC @ 3 μM, 4h ([4]; Caco-2) | SMILES | Liposome Fe transport kefflux at 10 10 μM ([2]; Table 1) | mouse 6-hour PK properties compared to hinokitiol (Mouse 6-hour PK study) | clearence half-life (t1/2) and/or intrinsic clearence (CLint) compared to hinokitiol ([1]; microsomes) | microsomal CLint ([1]; human liver microsomes, Table 4, read-out: Human CLint) [µL/min/mg] | half-life ([1]; human liver microsomes, Table 4, read-out: Human t1/2) [h] | Liposome Fe transport Kefflux at 10 μM ([2]; Table 1) | Liposome Fe transport Kefflux at 10 μM ([2]; Table 2) | microsomal CLint ([3]; mouse liver microsomes, Table 4, read-out: Mouse CLint) [µL/min/mg] | half-life ([3]; mouse liver microsomes, Table 4, read-out: Mouse t1/2) [h] | Caco2 shDMT1 transport FC @ 3 μM, 4h ([4]; 3 μM, 4 h, fold change normalized to hinokitiol (FC hino=1), Table 1) | Caco2 shDMT1 transport FC @ 3 μM, 4h ([4]; 3 μM, 4 h, fold change normalized to hinokitiol (FC hino=1), Table 2)
> 2.5 | < 25 | > 2.5 | < 25 | 1500 to 5000 | 1500 to 5000 | 1.25 to 4.99 | 0.01-0.5 | O=c1ccccc(-c2ccc(F)cn2)c1O [Ex.26, 3-(5-fluoropyridin-2-yl)-2-hydroxycyclohepta-2,4,6-trien-1-one] | 10-25 | one or more improved mouse 6-hour PK properties compared to hinokitiol | longer clearence half-life (t1/2) and/or lower intrinsic clearence (CLint) than hinokitiol | – | – | – | – | – | – | – | –
> 2 | < 11.6 | > 2 | < 11.6 | 1500 to 5000 | 1500 to 5000 | 1.25 to 4.99 | 0.01-0.5 | Cc1ncc(-c2cccc(=O)c(O)c2)cn1 [Ex.31, 2-hydroxy-4-(2-methylpyrimidin-5-yl)cyclohepta-2,4,6-trien-1-one] | 0.1-5 | one or more improved mouse 6-hour PK properties compared to hinokitiol | – | – | – | – | – | – | – | – | –
– | – | – | – | 1500 to 5000 | 1500 to 5000 | 1.25 to 4.99 | 0.01-0.5 | O=c1ccccc(Oc2ccc(F)cc2F)c1O [Ex.67, 3-(2,4-difluorophenoxy)-2-hydroxycyclohepta-2,4,6-trien-1-one] | – | one or more improved mouse 6-hour PK properties compared to hinokitiol | – | – | – | – | <0.1 | – | – | – | –
> 2 | < 11.6 | > 2 | < 11.6 | 5000 to 20000 | 1500 to 5000 | 1.25 to 4.99 | 0.01-0.5 | Cc1ncc(-c2cccc(=O)c(O)c2)c(C)n1 [Ex.32, 4-(2,4-dimethylpyrimidin-5-yl)-2-hydroxycyclohepta-2,4,6-trien-1-one] | 5-7.5 | one or more improved mouse 6-hour PK properties compared to hinokitiol | – | – | – | – | – | – | – | – | –
